Test results published in patent US20240352046A1, “ECTONUCLEOTIDE PYROPHOSPHATASE-PHOSPHODIESTERASE-1 (ENPP1) INHIBITORS AND USES THEREOF” (1cBio, Inc., priority 2020, published 2024).

target: ENPP-1 (Ectonucleotide Pyrophosphatase/Phosphodiesterase 1) (Homo sapiens (Human), UniProt P22413); assay: ENPP1 inhibition assay (AMP Glo, cGAMP substrate); type: biochemical; conditions: cGAMP 20 μM substrate, ENPP1 1 nM
Procedure: IC50 values of compounds against ENPP-1 (Ectonucleotide Pyrophosphatase/Phosphodiesterase 1) were determined at Integral BioSciences (India) using AMP Glo (Promega, Cat #V5011). Assay was performed in a 30 μL final volume in a white 96-well Half Area plate (Costar,Cat #3693). Dose response curve for the compounds were prepared in duplicates with starting conc. at 5 μM and a three-fold titration was performed. The reaction buffer consisted of 50 mM Tris (pH 8.0), 0.5 mM CaCl2), 1 μM ZnCl2, 250 mM NaCl and 0.1 mg/ml BSA. To the compound dilution, 15 μL of ENPP1 enzyme (R&D Systems; Cat #6136-EN-010) was added to each well (final conc. 1 nM) and the mix was pre-incubated for 15 min at RT. An equal volume (15 μL) containing cGAMP (Sigma, Cat #SML-1229) (final conc. 20 μM) was added to initiate the enzyme reaction and the reaction was incubated for 30 min at RT. The reaction was then stopped by heating at 90° C. for 3 minutes. 10 μl of reaction was then transferred to 384 well white, medium binding plates (Grenier, Cat #781075) to which 10 μl of AMP-Glo Reagent 1 was added and mixed well and incubated for 1 hour at 25° C. Following 60 min incubation, 20 μL of detection mixture was added to the enzyme reaction bringing the final volume to 40 μL. The reaction was further incubated for 60 min at RT after which the plates were read using BioTek Plate reader.
Analysis was done using the standard curve by non-linear regression, variable slope inhibitor curve fits (Graph-Pad Prism) and IC50's of compounds were determined wherever possible.

ENPP-1 (Ectonucleotide Pyrophosphatase/Phosphodiesterase 1), sequence (P22413 whole entry): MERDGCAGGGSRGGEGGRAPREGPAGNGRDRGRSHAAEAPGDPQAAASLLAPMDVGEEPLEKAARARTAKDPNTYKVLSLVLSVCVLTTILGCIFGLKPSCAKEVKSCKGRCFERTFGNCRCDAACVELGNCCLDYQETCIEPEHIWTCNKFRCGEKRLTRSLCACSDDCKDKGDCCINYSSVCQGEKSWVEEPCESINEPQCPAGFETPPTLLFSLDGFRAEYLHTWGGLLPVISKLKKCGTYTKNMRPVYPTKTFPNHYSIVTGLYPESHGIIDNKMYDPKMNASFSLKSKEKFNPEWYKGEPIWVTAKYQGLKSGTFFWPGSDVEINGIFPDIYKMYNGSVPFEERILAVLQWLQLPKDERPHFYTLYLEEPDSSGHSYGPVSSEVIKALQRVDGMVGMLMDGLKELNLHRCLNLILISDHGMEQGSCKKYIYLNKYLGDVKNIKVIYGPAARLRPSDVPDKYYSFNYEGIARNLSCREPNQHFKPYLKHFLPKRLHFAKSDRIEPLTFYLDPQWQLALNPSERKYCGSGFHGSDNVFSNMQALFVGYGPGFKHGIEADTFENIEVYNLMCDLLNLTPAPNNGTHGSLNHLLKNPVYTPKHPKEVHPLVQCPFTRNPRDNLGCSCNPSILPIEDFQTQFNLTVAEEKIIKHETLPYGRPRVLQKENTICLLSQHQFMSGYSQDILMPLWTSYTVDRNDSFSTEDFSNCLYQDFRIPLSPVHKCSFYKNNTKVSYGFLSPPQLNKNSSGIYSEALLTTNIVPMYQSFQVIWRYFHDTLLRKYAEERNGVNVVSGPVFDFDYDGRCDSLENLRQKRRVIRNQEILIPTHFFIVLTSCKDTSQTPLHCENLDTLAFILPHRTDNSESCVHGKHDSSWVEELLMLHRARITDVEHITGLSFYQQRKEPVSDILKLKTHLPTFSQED

**Q.** How did the IC50 turn out when `COc1ccc2ncnc(N3CC(CCNS(N)(=O)=O)C3)c2c1` [Compound 1.16, 4-(3-(2-sulfamoylaminoethyl)azetidine-1-yl)-6-methoxyquinazoline] was run?
**A.** 0.076 µM

**Q.** `CN(C1CC2(C1)CN(c1ncnc3c1cnn3C)C2)S(N)(=O)=O` [Compound 1.105, N-methyl-N-(2(1-methyl-1H-pyrazolo[3,4-d]pyrimidin-4-yl)-2-azaspiro[3.3]heptan-6-yl)sulfamamide] was tested. Which IC50 did it give?
**A.** 0.091 µM

**Q.** For `Cc1cc(Cl)n2ncnc(N3CC(CCN(C4CC4)S(N)(=O)=O)C3)c12` [Compound 1.92, N-(2-(1-(7-chloro-5-methylpyrrolo[2,1-f][1,2,4]triazin-4-yl)azetidin-3-yl)ethyl)-N-cyclopropylsulfamamide], which IC50 is on record?
**A.** 1.51 µM

**Q.** For `COc1cc2ncnc(N3CC4(CC(NS(N)(=O)=O)C4)C3)c2cc1OC` [Compound 1.15, 4-(6-sulfamoylamino-2-azaspiro[3.3]heptan-2-yl)-6,7-dimethoxyquinazoline], which IC50 is on record?
**A.** 0.005 µM

**Q.** How did the IC50 turn out when `Cc1cc(Cl)n2ncnc(N3CC(CN(C)S(N)(=O)=O)C3)c12` [Compound 1.86] was run?
**A.** 0.106 µM

**Q.** Which IC50 does the source give for `Cc1cc(Cl)n2ncnc(N3CC4(CC(NCc5ccc(S(N)(=O)=O)cc5)C4)C3)c12` [Compound 1.132, 4-(((2-(7-chloro-5-methylpyrrolo[2,1-f][1,2,4]triazin-4-yl)-2-azaspiro[3.3]heptan-6-yl)amino)methyl)benzenesulfonamide] here?
**A.** 0.181 µM

**Q.** How did the IC50 turn out when `CN(C1CC2(C1)CN(c1nc(Cl)nc3c1cnn3C)C2)S(N)(=O)=O` [Compound 1.96, N-(2-(6-chloro-1-methyl-1H-pyrazolo[3,4-d]pyrimidin-4-yl)-2-azaspiro[3.3]heptan-6-yl)-N-methylsulfamamide] was run?
**A.** > 3 µM

**Q.** How did the IC50 turn out when `COc1cc2[nH]c(=O)nc(N3CC(CCNS(N)(=O)=O)C3)c2cc1OC` [Compound 1.2, (2-(1-(6,7-dimethoxy-2-oxo-1,2-dihydroquinazolin-4-yl)azetidin-3-yl)ethyl)amiosulfonamide] was run?
**A.** > 5 µM

**Q.** `Cc1cc(Cl)n2ncnc(N3CC4(CC(N(CCC(F)(F)F)S(N)(=O)=O)C4)C3)c12` [Compound 1.93, N-(2-(7-chloro-5-methylpyrrolo[2,1-f][1,2,4]triazin-4-yl)-2-azaspiro[3.3]heptan-6-yl)-N-(3,3,3-trifluoropropyl)sulfamamide] was tested. Which IC50 did it give?
**A.** 0.019 µM

**Q.** How did the IC50 turn out when `CN(C1CC2(C1)CN(c1ncnc3scc(-c4ccccc4)c13)C2)S(N)(=O)=O` [Compound 1.100, N-methyl-N-(2-(5-phenylthieno[2,3-d]pyrimidin-4-yl)-2-azaspiro[3.3]heptan-6-yl)sulfamamide] was run?
**A.** > 3 µM

**Q.** How did the IC50 turn out when `CCCN(CCC1CN(c2ncnn3c(Cl)cc(C)c23)C1)S(N)(=O)=O` [Compound 1.95, N-(2-(1-(7-chloro-5-methylpyrrolo[2,1-f][1,2,4]triazin-4-yl)azetidin-3-yl)ethyl)-N-propylsulfamamide] was run?
**A.** 1.88 µM

**Q.** `Cc1cc(Cl)n2ncnc(N3CC4(CC(N(CC(F)(F)F)S(N)(=O)=O)C4)C3)c12` [Compound 1.129, N-(2-(7-chloro-5-methylpyrrolo[1,2-f][1,2,4]triazin-4-yl)-2-azaspiro[3.3]heptan-6-yl)-N-(2,2,2-trifluoroethyl)sulfamamide] was tested. Which IC50 did it give?
**A.** 0.047 µM

**Q.** Which IC50 does the source give for `COc1ccc2c(N3CC4(CC(N(CC(F)F)S(N)(=O)=O)C4)C3)ncnc2c1` [Compound 1.131, N-(2,2-difluoroethyl)-N-(2-(7-methoxyquinazolin-4-yl)-2-azaspiro[3.3]heptan-6-yl) sulfamamide] here?
**A.** 0.055 µM

**Q.** How did the IC50 turn out when `CCCN(C1CC2(C1)CN(c1nc(C)nn3c(Cl)cc(C)c13)C2)S(N)(=O)=O` [Compound 1.103, N-(2-(7-chloro-2,5-dimethylpyrrolo[1,2-f][1,2,4]triazin-4-yl)-2-azaspiro[3.3]heptan-6-yl)-N-propylsulfatamide] was run?
**A.** 0.59 µM

**Q.** For `Cc1cc(Cl)n2ncnc(N3CC4(CC(N(C(C)C)S(N)(=O)=O)C4)C3)c12` [Compound 1.82, N-(2-(7-chloro-5-methylpyrrolo[2,1-f][1,2,4]triazin-4-yl)-2-azaspiro[3.3]heptan-6-yl)-N-isopropylsulfamamide], which IC50 is on record?
**A.** 1.89 µM

**Q.** How did the IC50 turn out when `Cc1cc(Cl)n2ncnc(N3CC4(CC(N(C[C@@H](O)C(F)(F)F)S(N)(=O)=O)C4)C3)c12` (stereo in doubt) [Compound 1.125, N-(2-(7-chloro-5-methylpyrrolo[2,1-f][1,2,4]triazin-4-yl)-2-azaspiro[3.3]heptan-6-yl)-N-(3,3,3-trifluoro-2-hydroxypropyl)sulfamide] was run?
**A.** 0.05 µM

**Q.** `Cc1cc(C#N)n2ncnc(N3CC4(CC(N(C)S(N)(=O)=O)C4)C3)c12` [Compound 1.91, N-(2-(6-cyano-5-methylpyrrolo[1,2-f][1,2,4]triazin-4-yl)-2-azaspiro[3.3]heptan-6-yl)-N-methylsulfamamide] was tested. Which IC50 did it give?
**A.** > 3 µM

**Q.** With `Cc1ccn2ncnc(N3CC4(CC(NS(N)(=O)=O)C4)C3)c12` [Compound 1.62] as the molecule, how does the IC50 read?
**A.** 0.067 µM

**Q.** Which IC50 does the source give for `COc1ccc2c(N3CC(CCNS(N)(=O)=O)C3)ncnc2c1OC` [Compound 1.31, 4-(3-(2-sulfamoylaminoethyl)azetidine-1-yl)-7,8-dimethoxyquinazoline] here?
**A.** > 3 µM

**Q.** `Cc1cc(F)n2ncnc(N3CC4(CC(N(C)S(N)(=O)=O)C4)C3)c12` [Compound 1.80, N-(2-(7-fluoro-5-methylpyrrolo[1,2-f][1,2,4]triazin-4-yl)-2-azaspiro[3.3]heptan-6-yl)-N-methylsulfamamide] was tested. Which IC50 did it give?
**A.** 0.616 µM

**Q.** With `Cc1cc(Cl)n2ncnc(N3CC4(CC(N(C[C@H](O)C(F)(F)F)S(N)(=O)=O)C4)C3)c12` (stereo in doubt) [Compound 1.126, N-(2-(7-chloro-5-methylpyrrolo[2,1-f][1,2,4]triazin-4-yl)-2-azaspiro[3.3]heptan-6-yl)-N-(3,3,3-trifluoro-2-hydroxypropyl)sulfamide] as the molecule, how does the IC50 read?
**A.** 0.023 µM

**Q.** With `Cc1cc(Cl)n2nc(C(F)F)nc(N3CC4(CC(N(C)S(N)(=O)=O)C4)C3)c12` [Compound 1.90] as the molecule, how does the IC50 read?
**A.** > 3 µM

**Q.** With `COc1cc2nc(-c3ccn(C)n3)nc(N3CC(CCNS(N)(=O)=O)C3)c2cc1OC` [Compound 1.36, 6,7-dimethoxy-2-(1-methylpyrazol-3-yl)-4-[3-[2-(sulfamoylamino)ethyl]azetidin-1-yl]quinazoline] as the molecule, how does the IC50 read?
**A.** 0.464 µM

**Q.** Which IC50 does the source give for `Cc1cc(Cl)n2ncnc(N3CC(CCN(C(C)C)S(N)(=O)=O)C3)c12` [Compound 1.83, N-(2-(1-(7-chloro-5-methylpyrrolo[2,1-f][1,2,4]triazin-4-yl)azetidin-3-yl)ethyl)-N-isopropylsulfamamide] here?
**A.** > 3 µM

**Q.** Which IC50 does the source give for `Cc1cc(Cl)n2nc(-c3ccc(F)cc3)nc(N3CC4(CC(N(C)S(N)(=O)=O)C4)C3)c12` [Compound 1.106, N-(2-(7-chloro-2-(4-fluorophenyl)-5-methylpyrrolo[2,1-f][1,2,4]triazin-4-yl)-2-azaspiro[3.3]heptan-6-yl)-N-methylsulfamamide] here?
**A.** > 3 µM

**Q.** For `CCc1nc(N2CC(CCNS(N)(=O)=O)C2)c2ccc(OC)cc2n1` [Compound 1.37, 2-ethyl-7-methoxy-4-[3-[2-(sulfamoylamino)ethyl]azetidin-1-yl]quinazoline], which IC50 is on record?
**A.** > 3 µM

**Q.** For `Cc1cc(C)n2ncnc(N3CC4(CC(N(C)S(N)(=O)=O)C4)C3)c12` [Compound 1.77, N-(2-(5,7-dimethylpyrrolo[1,2-f][1,2,4]triazin-4-yl)-2-azaspiro[3.3]heptan-6-yl)-N-methylsulfamide], which IC50 is on record?
**A.** 0.295 µM

**Q.** How did the IC50 turn out when `COc1cc2ncnc(N3CC4(CC(CB(O)O)C4)C3)c2cc1OC` [Compound 1.53, (2-(6,7-dimethoxyquinazolin-4-yl)-2-azaspiro[3.3]heptan-6-yl)methylboronic acid] was run?
**A.** 0.122 µM
